row,SMILES,melting point [°C]
1,CC1=C(C)C(=O)N(CC(=O)N2c3ccccc3N(Cc3ccccc3)C(=O)[C@H]3CCC[C@H]32)C1=O (relative stereo),196 to 200
2,Fc1cccc(F)c1-c1cncn1-c1ccc(Cl)cc1,170 to 172
3,CCOCc1nc2c(N)nc3c(c2n1NCCCNC(=O)C(C)C)CCCC3,163 to 165
4,CNC(=N[N+](=O)[O-])NCc1cnc(Br)s1,170
5,O=C1CCCCc2sccc2N1CCCCN1CCN(c2ncccn2)CC1,108 to 112
6,CC1(C)C=Cc2c(c3ccccc3n(Cc3ccccc3)c2=O)O1,91 to 92
7,Cn1ccc2cc(NC(=O)c3cc4cc(F)ccc4n3Cc3cccc(F)c3)ccc21,187 to 189
8,CSc1nc2c(NCc3ccccc3)ncnc2n1C1OC(CO)C(O)C1O (stereo not drawn),81 to 84
9,C#CCOc1ccc(CCN(OS(C)(=O)=O)C(=O)Cc2ccc(Cl)cc2)cc1OC,91 to 93
10,Nc1nccc(-c2c(-c3ccc(F)cc3)ncn2C2CCNCC2)n1,199 to 200
11,Cc1ccncc1NC(=O)OC(C)(C)C,91 to 93
12,CN1CCC(c2cccc(Cl)c2)(C(C)(C)O)CC1,149 to 150
13,OCc1cc(O)cc2cc(-c3ccc(O)cc3)oc12,258 to 260
14,Cc1n[nH]c(-c2ccc(Br)cc2)c1NC(=O)c1ccccc1,273 to 274
15,O=S1(=O)NCc2cccc(Cl)c21,159 to 161
16,OCCSCc1ccc(-c2ccc(CSCCO)cc2)cc1,152
17,CCN1C(=O)C(=C2C=C(N3CCCC3)CC(C)(C)C2)C(=O)N(CC)C1=S,226 to 227
18,COC(=O)c1cccc(CNC(=O)C2CC2)c1C(=O)OC,240 to 242
19,COc1ccc(OCC#CCCC(N)N2C(=O)c3ccccc3C2=O)cc1 (stereo not drawn),51 to 53
20,C(=C\c1ccoc1)/c1ccccc1,96
21,CC(=O)N1N=C(c2ccncc2)OC1c1ccc(Cl)c([N+](=O)[O-])c1 (stereo not drawn),122
22,O=C(Nc1ccc(C(CC2CCCC2)C(=O)Nc2nccs2)cc1)c1cccnc1 (stereo not drawn),240 to 242
23,O=C(C=Cc1ccccc1)Nc1ccc(C(c2ccc(Cl)cc2)n2ccnc2)cc1 (stereo not drawn),244
24,COC(=O)c1cc2cc(SCc3sc(-c4ccc(C(F)(F)F)cc4)nc3C)ccc2o1,132 to 133
25,CC(C)Oc1n[nH]cc1C(=O)NCc1ccc(Cl)cc1Cl,185 to 186

row,SMILES,melting point [°C]
1,Cc1cc(C#N)cc(C)c1Oc1nc(Nc2ccc(C#N)cc2)nc(C)c1Br,260 to 262
2,Oc1cc2c3ccc(O)c(O)c3n(CCCc3ccccc3)c2cc1O,246 to 252
3,CCCC(=O)c1ccc(=O)[nH]c1C,167 to 168
4,CCOC(=O)C1=C(C)Nc2nc(N3CCOCC3)nc(N3CCOCC3)c2C1c1ccccc1C(F)(F)F (stereo not drawn),214
5,N#Cc1cnn(-c2c(Cl)cc(C(F)(F)F)c(Cl)c2Cl)c1N,186 to 187
6,Cc1cc(-c2ccccc2)n2nc(C(F)(F)F)c(C#N)c2n1,143 to 148
7,O=C1Nc2cccc(-c3cccc(NC(=O)c4cccc([N+](=O)[O-])c4)c3)c2/C1=C/c1ccc[nH]1,265 to 266
8,Nc1ccc(N2C(=O)CNC2=O)cc1,230 to 231
9,C=CCOc1cccc2c(=O)cc(N3CCOCC3)oc12,134 to 136
10,CCOC(=O)CSc1nc(-c2ccccc2)c(-c2ccccc2)o1,53 to 55
11,Clc1ncnc(Cl)c1Cl,50 to 52
12,O=C(O)Cc1ccc(NC(=O)C(CCc2ccccc2)NS(=O)(=O)c2ccc(Br)cc2)cc1 (racemic),155 to 160
13,Cn1cc(-c2ccccc2)c(=O)c(-c2cccc(O)c2)c1,223 to 225
14,Cc1cccc(CCC(C)O)c1NC(=O)CC1c2ccccc2Oc2ccccc21 (stereo not drawn),167 to 168
15,O=C1Cc2c(Cl)cccc2Sc2ccc(F)cc21,135 to 137
16,C=CCCCCCCCCC(O)CC(=O)O (stereo not drawn),62 to 64
17,COc1ccc(CNc2ncnc3c2ncn3C2OC(CO)C(O)C2O)cc1 (stereo not drawn),148
18,COc1cc(OC)c(-c2cccs2)cc1/C=C/C(=O)c1ccc(S(=O)(=O)NN2CCCCC2)cc1,174 to 176
19,O=C1CCC(N2C(=O)c3cccc(OCc4ccc(Cl)c(Cl)c4)c3C2=O)C(=O)N1 (stereo not drawn),245 to 247
20,CCOc1nc2ccccc2nc1N(C)C(=O)N1CCN(c2cc(Cl)cc(Cl)c2)CC1,129 to 131
21,CCOC(=O)C(C)Oc1ccc(Oc2cnc3ccc(Cl)cc3c2)cc1 (stereo not drawn),98
22,COC(=O)CS(=O)(=O)Cc1cccc(-c2nc(=O)c3ccccc3s2)n1,205 to 207
23,COc1ccc(N2CN(c3ccccc3)C(N)=C3C=NN=C32)cc1,204 to 206
24,CCCNCCc1ccc(NS(=O)(=O)c2ccc(Cl)cc2)cc1,137 to 140
25,COc1ccc(/C=C/c2ccccc2)c(OC)c1OC,79 to 82

row,SMILES,melting point [°C]
1,Cc1cc(O)n2nc(CS)nc2n1,215
2,COc1ccc(C#Cc2ccccc2)cc1,57 to 58
3,CC(=O)OCc1ccc(-c2[nH]c(-c3cccc4ccccc34)nc2C(=O)OC(C)(C)C)cc1,162 to 164
4,Clc1ncc(-c2ccsc2)cn1,154 to 157
5,O=C(O)c1c(-c2cccc3ccccc23)c2ccccc2n1Cc1cc2c(cc1Cl)OCO2,241 to 242
6,CNc1c([N+](=O)[O-])cnc2ccccc12,168 to 170
7,Cc1nn(C)c(F)c1C(=O)Nc1cccc2c1CCC2(C)C,138
8,CC(=O)c1cn(C(=O)OC(C)(C)C)c2ccc(OCc3ccccc3)cc12,114 to 116
9,O=c1c(N2CCNCC2)nccn1CCOc1cc(F)cc(F)c1,119 to 121
10,CCCCCCS(=O)(=O)c1nn2c(=O)c(C(C)=O)cnc2s1,124 to 125
11,CCC(Cc1ccc(OC)c(OCCc2ccccc2)c1)NC(=O)OC(C)(C)C (stereo not drawn),88.5 to 89.5
12,Cc1nc2sc([N+](=O)[O-])cc2c(=O)n1-c1ccc([N+](=O)[O-])cc1Cl,166 to 168
13,Nc1c2c(=O)c3ccccc3c(=O)c2c(N)c2c(=O)n(CCCO)c(=O)c12,261 to 262
14,NS(=O)(=O)c1cc(C(=O)c2ccc3c(c2)CCC3)ccc1Cl,164 to 166
15,O=C(NCCc1ccccc1)C(F)(F)F,50 to 52
16,COc1cc(-c2ccc3n[nH]c(=O)n3n2)cc(OC)c1OC,289 to 290
17,Cn1c(-c2ccc(N3CCOCC3)cc2)cnc1[C@H](Cc1ccccn1)N(C=O)c1cc2cc(Br)ccc2o1,173 to 174
18,N=C(Nc1cc(Cl)cc(NC(=O)/C=C/c2ccccc2C(F)(F)F)c1)c1cccs1,178 to 179
19,CC(C)CCS(=O)(=O)c1cccc(-c2nc(=O)c3ccccc3s2)n1,146 to 147
20,Cc1ccc2c(c1)NC(NC(C)C)=NS2(=O)=O,137 to 139
21,CC(C)CCNC(=O)c1ccc2c(c1)N(C(C)CN1CCCC1CO)c1ccccc1S2 (stereo not drawn),140
22,CCOC(=O)C1=C(C)N(Cc2ccccc2)C(C)=C(C(=O)OCC)C1c1ccc(Br)cc1,168 to 169
23,CC1Nc2cccc3c(O)ccc(c23)S1(=O)=O (stereo not drawn),245 to 246
